{"source": "paper PMC8148064", "about": "(Acta Pharmaceutica Sinica. B, 2020)", "molecular_target": "adenylyl cyclase-associated protein 1 (CAP1) (Homo sapiens, UniProt Q01518)", "sequence (Q01518 2-475)": "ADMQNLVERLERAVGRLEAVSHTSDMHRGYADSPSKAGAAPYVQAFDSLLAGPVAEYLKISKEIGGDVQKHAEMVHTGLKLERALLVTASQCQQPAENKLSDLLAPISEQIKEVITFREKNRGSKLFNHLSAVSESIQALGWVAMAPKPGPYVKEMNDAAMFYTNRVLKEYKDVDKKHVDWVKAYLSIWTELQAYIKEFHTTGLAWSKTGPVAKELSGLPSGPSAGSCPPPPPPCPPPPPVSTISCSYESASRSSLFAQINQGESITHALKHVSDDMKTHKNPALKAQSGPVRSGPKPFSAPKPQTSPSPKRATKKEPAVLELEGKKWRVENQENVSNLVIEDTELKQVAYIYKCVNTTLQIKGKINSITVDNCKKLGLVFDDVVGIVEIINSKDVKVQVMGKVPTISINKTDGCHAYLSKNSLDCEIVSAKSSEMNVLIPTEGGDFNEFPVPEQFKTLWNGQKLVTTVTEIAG", "assay": "ITC with purified CAP1", "assay_type": "binding", "note": "pKd: −log10 of the molar value.", "data": [{"smiles": "CC1=C(O)C(=O)C=C2C1=CC=C1[C@@]2(C)CC[C@@]2(C)[C@@H]3C[C@](C)(C(=O)O)CC[C@]3(C)CC[C@]12C", "note": "[celastrol]", "values": [{"measurement": "pKd", "result": 6.96}]}]}
